Experiments:
[1] = target: T1, Muscarinic acetylcholine receptor M2 (Homo sapiens) (UniProt P08172); experiment: Antagonist potency at muscarinic receptor M2 in guinea pig atrium; type: functional, tissue-based; conditions: Cavia porcellus; Cardiac atrium; target entry is the homologue from another species
T1 sequence (whole entry): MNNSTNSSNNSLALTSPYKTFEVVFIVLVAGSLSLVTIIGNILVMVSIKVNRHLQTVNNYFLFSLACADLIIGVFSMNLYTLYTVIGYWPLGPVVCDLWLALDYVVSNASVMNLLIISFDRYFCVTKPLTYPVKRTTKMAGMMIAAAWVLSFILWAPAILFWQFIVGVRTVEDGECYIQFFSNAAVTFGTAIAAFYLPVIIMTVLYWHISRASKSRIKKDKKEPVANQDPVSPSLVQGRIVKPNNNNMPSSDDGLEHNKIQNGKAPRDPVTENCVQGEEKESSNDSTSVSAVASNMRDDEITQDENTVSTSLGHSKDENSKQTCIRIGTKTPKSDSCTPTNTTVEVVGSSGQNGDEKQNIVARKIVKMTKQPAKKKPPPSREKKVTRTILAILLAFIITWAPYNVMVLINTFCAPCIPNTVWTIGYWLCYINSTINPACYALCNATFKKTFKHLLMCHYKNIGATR

[2] = target: T2, Muscarinic acetylcholine receptor M4 (Homo sapiens) (UniProt P08173); experiment: Antagonist potency at muscarinic receptor M4 in rabbit vas deferens; type: functional, tissue-based; conditions: Oryctolagus cuniculus, target entry is the homologue from another species
T2 sequence (whole entry): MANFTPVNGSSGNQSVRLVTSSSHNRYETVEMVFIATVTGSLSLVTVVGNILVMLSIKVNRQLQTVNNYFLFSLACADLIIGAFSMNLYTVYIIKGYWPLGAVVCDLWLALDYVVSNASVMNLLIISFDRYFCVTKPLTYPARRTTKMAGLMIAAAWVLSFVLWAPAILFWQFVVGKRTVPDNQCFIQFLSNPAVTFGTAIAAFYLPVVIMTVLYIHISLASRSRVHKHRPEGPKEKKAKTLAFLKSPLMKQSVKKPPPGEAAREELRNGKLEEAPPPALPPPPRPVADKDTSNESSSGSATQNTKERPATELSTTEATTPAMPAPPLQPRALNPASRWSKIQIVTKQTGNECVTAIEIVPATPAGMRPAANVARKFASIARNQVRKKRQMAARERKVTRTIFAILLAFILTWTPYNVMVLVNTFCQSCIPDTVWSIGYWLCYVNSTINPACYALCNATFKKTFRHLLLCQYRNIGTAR

[3] = target: Muscarinic acetylcholine receptor M3 (Cavia porcellus) (UniProt Q8VH26); experiment: Antagonist potency at muscarinic receptor M3 in guinea pig ileum; type: functional, tissue-based
Mus musculus [4] = experiment: Antinociceptive activity in mouse assessed as licking latency at 1 mg/kg, ip by hot plate method; type: functional; conditions: route intraperitoneal
Acetylcholinesterase = Acetylcholinesterase (Homo sapiens, UniProt P22303); experiment: Inhibition of human erythrocyte recombinant AchE after 20 mins
Cholinesterase = Cholinesterase (Homo sapiens, UniProt P06276); experiment: Inhibition of human serum recombinant BChE after 20 mins
Mus musculus [5] = experiment: Antinociceptive activity in mouse assessed as licking latency at 0.01 ug, icv after 45 mins by hot plate method; type: functional
Mus musculus [6] = experiment: Antinociceptive activity in mouse assessed as licking latency at 0.05 ug, icv after 15 mins by hot plate method; type: functional
Mus musculus [7] = experiment: Antinociceptive activity in mouse assessed as licking latency at 0.005 ug, icv after 15 mins by hot plate method; type: functional
Mus musculus [8] = experiment: Antinociceptive activity in mouse assessed as licking latency at 0.01 ug, icv after 30 mins by hot plate method; type: functional
Mus musculus [9] = experiment: Antinociceptive activity in mouse assessed as licking latency at 1.0 ug, icv after 60 mins by hot plate method; type: functional
Mus musculus [10] = experiment: Antinociceptive activity in mouse assessed as licking latency at 0.01 ug, icv after 15 mins by hot plate method; type: functional
[11] = target: T3, Muscarinic acetylcholine receptor M5 (Homo sapiens, UniProt P08912); experiment: Displacement of [3H] N-methyl-scopolamine chloride from human muscarinic receptor M5 expressed in CHO cells; type: cell-based
T3 sequence (P08912 whole entry): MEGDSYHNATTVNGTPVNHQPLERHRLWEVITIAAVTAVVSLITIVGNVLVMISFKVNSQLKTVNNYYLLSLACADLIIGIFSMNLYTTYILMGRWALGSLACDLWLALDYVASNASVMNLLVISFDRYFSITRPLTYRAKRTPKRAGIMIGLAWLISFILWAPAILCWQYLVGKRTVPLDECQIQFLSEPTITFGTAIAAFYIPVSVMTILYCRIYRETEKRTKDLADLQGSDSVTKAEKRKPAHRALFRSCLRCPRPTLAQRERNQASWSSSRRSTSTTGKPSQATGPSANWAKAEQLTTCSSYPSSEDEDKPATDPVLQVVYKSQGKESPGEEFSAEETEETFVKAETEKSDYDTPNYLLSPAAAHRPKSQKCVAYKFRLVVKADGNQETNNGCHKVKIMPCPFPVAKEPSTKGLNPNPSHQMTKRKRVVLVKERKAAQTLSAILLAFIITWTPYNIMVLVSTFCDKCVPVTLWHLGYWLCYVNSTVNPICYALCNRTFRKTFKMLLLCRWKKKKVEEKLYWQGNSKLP

[12] = target: T4, Muscarinic acetylcholine receptor M1 (Homo sapiens, UniProt P11229); experiment: Displacement of [3H] N-methyl-scopolamine chloride from human muscarinic receptor M1 expressed in CHO cells; type: cell-based
T4 sequence (P11229 whole entry): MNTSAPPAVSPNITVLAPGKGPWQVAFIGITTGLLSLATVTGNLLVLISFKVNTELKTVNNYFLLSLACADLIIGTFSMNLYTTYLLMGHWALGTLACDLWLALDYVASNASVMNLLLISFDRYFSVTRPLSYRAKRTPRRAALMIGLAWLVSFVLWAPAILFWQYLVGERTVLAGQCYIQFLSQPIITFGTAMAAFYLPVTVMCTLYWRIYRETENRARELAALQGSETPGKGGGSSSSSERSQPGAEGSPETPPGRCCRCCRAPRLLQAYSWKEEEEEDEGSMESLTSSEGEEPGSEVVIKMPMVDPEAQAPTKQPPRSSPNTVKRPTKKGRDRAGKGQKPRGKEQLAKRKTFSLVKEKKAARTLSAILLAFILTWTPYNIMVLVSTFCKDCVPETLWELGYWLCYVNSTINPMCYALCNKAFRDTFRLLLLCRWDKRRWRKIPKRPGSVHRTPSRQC

Mus musculus [13] = experiment: Antinociceptive activity in mouse assessed as licking latency at 0.005 ug, icv after 60 mins by hot plate method; type: functional
Mus musculus [14] = experiment: Antinociceptive activity in mouse assessed as licking latency at 1.0 ug, icv after 30 mins by hot plate method; type: functional
[15] = target: T5, Muscarinic acetylcholine receptor M4 (Homo sapiens, UniProt P08173); experiment: Displacement of [3H] N-methyl-scopolamine chloride from human muscarinic receptor M4 expressed in CHO cells; type: cell-based
T5 sequence (P08173 whole entry): T2 sequence (whole entry)

Mus musculus [16] = experiment: Antinociceptive activity in mouse assessed as licking latency at 0.05 ug, icv after 60 mins by hot plate method; type: functional
Mus musculus [17] = experiment: Antinociceptive activity in mouse assessed as licking latency at 1.0 ug, icv after 45 mins by hot plate method; type: functional
Mus musculus [18] = experiment: Antinociceptive activity in mouse assessed as licking latency at 0.05 ug, icv after 45 mins by hot plate method; type: functional
Mus musculus [19] = experiment: Antinociceptive activity in mouse assessed as licking latency at 0.005 ug, icv after 45 mins by hot plate method; type: functional
[20] = target: Muscarinic acetylcholine receptor M3 (Homo sapiens, UniProt P20309); experiment: Displacement of [3H] N-methyl-scopolamine chloride from human muscarinic receptor M3 expressed in CHO cells; type: cell-based
Mus musculus [21] = experiment: Antinociceptive activity in mouse assessed as licking latency at 0.005 ug, icv after 30 mins by hot plate method; type: functional
Mus musculus [22] = experiment: Antinociceptive activity in mouse assessed as licking latency at 1.0 ug, icv after 15 mins by hot plate method; type: functional
Mus musculus [23] = experiment: Antinociceptive activity in mouse assessed as licking latency at 0.01 ug, icv after 60 mins by hot plate method; type: functional
Mus musculus [24] = experiment: Antinociceptive activity in mouse assessed as licking latency at 0.05 ug, icv after 30 mins by hot plate method; type: functional
Mus musculus [25] = experiment: Antinociceptive activity in mouse assessed as licking latency at 5 mg/kg, ip by hot plate method; type: functional; conditions: route intraperitoneal

Chain of Muscarinic acetylcholine receptor M3 (Cavia porcellus) (Q8VH26 1-587): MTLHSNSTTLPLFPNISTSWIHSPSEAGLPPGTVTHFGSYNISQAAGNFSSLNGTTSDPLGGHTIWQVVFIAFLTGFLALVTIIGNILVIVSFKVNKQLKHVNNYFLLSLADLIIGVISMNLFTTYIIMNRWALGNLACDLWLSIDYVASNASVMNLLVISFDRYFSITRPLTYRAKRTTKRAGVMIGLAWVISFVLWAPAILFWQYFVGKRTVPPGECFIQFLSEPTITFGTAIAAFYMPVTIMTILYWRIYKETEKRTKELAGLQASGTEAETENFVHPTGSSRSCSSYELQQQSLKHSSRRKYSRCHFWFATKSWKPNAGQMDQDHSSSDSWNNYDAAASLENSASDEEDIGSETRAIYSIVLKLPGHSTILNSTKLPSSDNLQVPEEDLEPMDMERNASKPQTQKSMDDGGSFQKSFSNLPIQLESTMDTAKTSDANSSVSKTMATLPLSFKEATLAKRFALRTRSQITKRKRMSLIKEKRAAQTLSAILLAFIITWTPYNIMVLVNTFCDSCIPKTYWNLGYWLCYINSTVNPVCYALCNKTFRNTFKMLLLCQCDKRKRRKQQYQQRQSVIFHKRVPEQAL
Chain of Muscarinic acetylcholine receptor M3 (P20309 whole entry): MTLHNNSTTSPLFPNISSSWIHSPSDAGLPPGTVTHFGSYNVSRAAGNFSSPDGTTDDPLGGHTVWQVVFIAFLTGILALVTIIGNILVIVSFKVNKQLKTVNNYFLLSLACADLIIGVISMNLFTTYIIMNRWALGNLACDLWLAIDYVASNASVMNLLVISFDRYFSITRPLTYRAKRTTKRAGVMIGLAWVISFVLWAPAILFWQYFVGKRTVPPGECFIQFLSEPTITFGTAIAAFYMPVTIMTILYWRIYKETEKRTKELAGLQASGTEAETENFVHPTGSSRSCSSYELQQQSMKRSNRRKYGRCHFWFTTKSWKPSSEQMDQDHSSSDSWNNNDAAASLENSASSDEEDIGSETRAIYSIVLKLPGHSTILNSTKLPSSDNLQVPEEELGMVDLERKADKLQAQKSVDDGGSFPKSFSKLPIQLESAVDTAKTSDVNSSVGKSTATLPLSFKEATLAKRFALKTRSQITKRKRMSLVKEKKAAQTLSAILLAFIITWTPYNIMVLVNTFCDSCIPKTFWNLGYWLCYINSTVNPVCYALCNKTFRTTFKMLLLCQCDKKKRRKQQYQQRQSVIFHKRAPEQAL
Chain of Acetylcholinesterase (P22303 whole entry): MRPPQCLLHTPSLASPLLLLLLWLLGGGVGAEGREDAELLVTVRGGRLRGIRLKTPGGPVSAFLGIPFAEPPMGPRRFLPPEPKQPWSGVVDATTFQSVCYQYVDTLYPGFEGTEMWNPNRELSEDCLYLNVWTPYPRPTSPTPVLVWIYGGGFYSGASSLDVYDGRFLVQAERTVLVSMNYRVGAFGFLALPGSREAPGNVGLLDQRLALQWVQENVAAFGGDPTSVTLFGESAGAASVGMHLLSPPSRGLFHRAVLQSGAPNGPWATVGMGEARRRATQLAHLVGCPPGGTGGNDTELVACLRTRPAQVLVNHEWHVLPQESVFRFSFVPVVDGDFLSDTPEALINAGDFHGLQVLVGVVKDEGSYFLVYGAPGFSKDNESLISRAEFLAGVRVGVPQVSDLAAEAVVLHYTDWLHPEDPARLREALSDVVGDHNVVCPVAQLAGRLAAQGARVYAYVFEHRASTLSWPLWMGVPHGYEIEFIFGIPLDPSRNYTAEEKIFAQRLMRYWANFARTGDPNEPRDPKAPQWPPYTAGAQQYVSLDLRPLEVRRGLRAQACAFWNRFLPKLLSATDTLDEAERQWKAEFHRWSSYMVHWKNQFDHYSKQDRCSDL
Chain of Cholinesterase (P06276 whole entry): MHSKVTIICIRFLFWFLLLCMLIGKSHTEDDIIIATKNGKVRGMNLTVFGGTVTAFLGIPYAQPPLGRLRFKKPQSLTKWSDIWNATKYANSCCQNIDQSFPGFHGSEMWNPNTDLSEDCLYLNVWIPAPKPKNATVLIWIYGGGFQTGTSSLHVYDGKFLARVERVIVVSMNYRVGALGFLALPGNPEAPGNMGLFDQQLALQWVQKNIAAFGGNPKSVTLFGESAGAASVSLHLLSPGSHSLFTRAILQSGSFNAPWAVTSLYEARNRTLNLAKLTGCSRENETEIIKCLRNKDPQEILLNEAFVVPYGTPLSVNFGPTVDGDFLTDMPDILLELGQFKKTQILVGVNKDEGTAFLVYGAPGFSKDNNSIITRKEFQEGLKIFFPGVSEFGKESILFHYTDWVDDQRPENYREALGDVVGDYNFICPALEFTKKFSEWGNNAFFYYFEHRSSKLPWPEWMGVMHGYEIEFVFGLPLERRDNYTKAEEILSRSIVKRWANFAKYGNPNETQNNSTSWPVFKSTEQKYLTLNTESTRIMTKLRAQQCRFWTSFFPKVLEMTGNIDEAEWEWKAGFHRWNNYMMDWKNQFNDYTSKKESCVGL

Row | Compound | pKb [1] | pKb [2] | pKb [3] | other results
1 | COc1ccccc1CNCCCCCC(=O)N1CCC(CC2CCN(C(=O)CCCCCNCc3ccccc3OC)CC2)CC1 | 6.29 | 5.37 | 5.48 | –
2 | COc1ccccc1CNCCCCCC(=O)Nc1ccc(-c2ccc(NC(=O)CCCCCNCc3ccccc3OC)cc2)cc1 | 5.31 | 5.21 | – | –
3 | COc1ccccc1CNCCCCCC(=O)Nc1ccc(Cc2ccc(NC(=O)CCCCCNCc3ccccc3OC)cc2)cc1 | 5.47 | < 5 | 5.32 | –
4 | COc1ccccc1CNCCCCCC(=O)N1CCC(C2CCN(C(=O)CCCCCNCc3ccccc3OC)CC2)CC1 | 6.5 | 6 | 5.62 | –
5 | COc1ccccc1CNCCCCCCNc1ccc(-c2ccc(NCCCCCCNCc3ccccc3OC)cc2)cc1 | < 5 | < 5 | – | –
6 | COc1ccccc1CNCCCCCCNc1ccc(CCc2ccc(NCCCCCCNCc3ccccc3OC)cc2)cc1 | < 5 | < 5.52 | – | –
7 | C=CCN1CC[C@]23c4c5ccc(O)c4O[C@H]2C(=O)CC[C@@]3(O)[C@H]1C5 [NALOXONE] | – | – | – | Activity (Mus musculus [4]): 15.1 s
8 | COc1ccccc1CNCCCCCC(=O)N1CCC(CCCC2CCN(C(=O)CCCCCNCc3ccccc3OC)CC2)CC1 | 5.11 | < 5 | 5.09 | –
9 | COc1ccccc1CNCCCCCCNc1ccc(Cc2ccc(NCCCCCCNCc3ccccc3OC)cc2)cc1 | < 5 | < 5 | 5.35 | –
10 | COc1ccccc1CNCCCCCC(=O)Nc1ccc(CCc2ccc(NC(=O)CCCCCNCc3ccccc3OC)cc2)cc1 | < 5 | < 5 | < 5 | –
11 | COc1ccccc1CNCCCCCCN1CCC(CC2CCN(CCCCCCNCc3ccccc3OC)CC2)CC1 | 7.16 | 5.39 | 5.82 | –
12 | COc1ccccc1CNCCCCCC(=O)N1CCC(CCC2CCN(C(=O)CCCCCNCc3ccccc3OC)CC2)CC1 | 5.91 | 6.09 | 5.14 | IC50 (Acetylcholinesterase): 135 nM; IC50 (Cholinesterase): 18600 nM
13 | COc1ccccc1CNCCCCCCN1CCC(CCCC2CCN(CCCCCCNCc3ccccc3OC)CC2)CC1 | 7.52 | 5.64 | 6.37 | –
14 | COc1ccccc1CNCCCCCCNCCCCCCCCNCCCCCCNCc1ccccc1OC [METHOCTRAMINE] | – | 6.45 | 6.32 | Time (Mus musculus [5]): 19.3 s; Time (Mus musculus [6]): 24.1 s; Time (Mus musculus [7]): 20.2 s; Time (Mus musculus [8]): 22.5 s; Time (Mus musculus [9]): 15.5 s; Time (Mus musculus [10]): 23.4 s; Ki [11]: 550 nM; Ki [12]: 83.2 nM; Time (Mus musculus [13]): 16.6 s; Time (Mus musculus [14]): 21.3 s; Ki [15]: 107 nM; Time (Mus musculus [16]): 14.4 s; Time (Mus musculus [17]): 17.5 s; Time (Mus musculus [18]): 18.7 s; Time (Mus musculus [19]): 18.3 s; Ki [20]: 525 nM; Time (Mus musculus [21]): 18.4 s; Time (Mus musculus [22]): 20.6 s; Time (Mus musculus [23]): 17.2 s; Time (Mus musculus [24]): 23.9 s
15 | CN1[C@@H]2CC[C@H]1C[C@@H](OC(=O)C(CO)c1ccccc1)C2 (some centres not stated) [ATROPINE] | – | – | – | Activity (Mus musculus [25]): 14.9 s
16 | COc1ccccc1CNCCCCCCN1CCC(C2CCN(CCCCCCNCc3ccccc3OC)CC2)CC1 | 7.12 | 6.13 | 6.08 | –
